Test results as given in EP1210336B1, “SUBSTITUTED BENZIMIDAZOLES AS NON-NUCLEOSIDE INHIBITORS OF REVERSE TRANSCRIPTASE” (THE UNITED STATES OF AMERICA, as represented by the …, priority 1999, dated 2001).
Like-named read-outs stand apart in the source and are kept apart here.

Columns and labels:
[1] = tested on: HIV-1 variant L74V; experiment: Cytopathic cell killing assay, cross-resistance profile, infected MT-4 cells; type: cell-based
Outline: (§1)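 Infected cultures (MOI chosen for complete cell death at 6 days, isolates matched by pre-titering) received serially diluted compound. Surviving cells were detected colorimetrically via XTT at 450 nm.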

[2] = tested on: HIV-1 variant Y188C; experiment: as above; type: cell-based
Outline: as §1

[3] = tested on: HIV-1 variant V106A; experiment: as above; type: cell-based
Outline: as §1

[4] = tested on: HIV-1 variant L100I; experiment: as above; type: cell-based
Outline: as §1

[5] = tested on: HIV-1 variant K103N; experiment: as above; type: cell-based; conditions: isolate K103N
Outline: as §1

[6] = tested on: HIV-1 variant K101E; experiment: as above; type: cell-based
Outline: as §1

[7] = tested on: HIV-1 isolate 4xAZT; experiment: as above; type: cell-based
Outline: as §1

[8] = tested on: HIV-1 variant A98G; experiment: as above; type: cell-based
Outline: as §1

[9] = tested on: HIV-1 isolate 4xAZT/Y181C; experiment: as above; type: cell-based
Outline: as §1

[10] = tested on: HIV-1 variant V108I; experiment: as above; type: cell-based
Outline: as §1

[11] = tested on: HIV-1 variant Y181C; experiment: as above; type: cell-based
Outline: as §1

[12] = tested on: HIV-1 variant V179D; experiment: as above; type: cell-based
Outline: as §1

[13] = molecular target: T1, HIV-1 WT RT (Human immunodeficiency virus type 1 group M subtype B, UniProt P03366); conditions: reported by Pauwels et al. (TIBO) and Buckheit et al. (thiazolobenzimidazole); read-out: IC50 for rC:dG; cited from earlier work
T1 construct: purified RT protein (0.015 mg/mL) was incubated in a 100 µL reaction mixture

[14] = tested on: NL4-3 (WT); experiment: Cytopathic cell killing assay, cross-resistance profile, infected MT-4 cells; type: cell-based, HIV-1
Outline: as §1

[15] = tested on: HIV-1 isolate 4xAZT/L100I; experiment: as above; type: cell-based
Experimental: The various HIV isolates tested in the Figures are those corresponding to wild-type virus (NL4-3) and the other strains listed by their RT mutations. The three 4xAZT isolates included in the Figures represent AZT drug-resistant variants. […]
Briefly, in this method cells (e.g., the CEM-SS cell line, available from the NIAID AIDS Research and Reference Program [ARRRP]) were seeded at a density of 5 x 10^3 cells/well, into the wells of a 96-well microtiter plate. The cells were then infected with HIV virus (either mutant or WT), at a multiplicity of infection (MOI) previously determined to provide complete cell killing by 6 days of culture post-infection (e.g., MOI of 0.01-0.05). Each of the HIV isolates was pre-titered to induce equivalent levels of infection based on cell killing or virus production, prior to their use in these assays. A range of test compound concentrations was added to the wells in triplicate (e.g., serial half-log dilutions) to evaluate inhibition of HIV infection. Controls for each assay included drug controls (drug colorimetric control wells), drug cytotoxicity control wells (cells with drug), virus control wells (cells with virus), and cell viability controls (cells only). Positive control drugs (e.g., AZT and ddC) were also run in parallel.
After six days of incubation at 37°C, cell viability was determined spectrophotometrically at 450 nm for each well, using the metabolic reduction of XTT to a soluble colored formazan. (See, Gartner and Popovic, "Virus Isolation and Production, in Aldovini and Walker (eds.), Techniques in HIV Research, Stockton Press, NY, pp. […] [1991]; and Nara and Fischinger, "Quantitative Infectivity Assay for HIV-1 and HIV-2," Nature 332:469-470 [1988]).
The in vitro therapeutic index (TI50) was defined as the fold-difference between the EC50 and IC50.

[16] = molecular target: T1, HIV-1 WT RT; experiment: biochemical
[17] = tested on: WT virus (NL4-3); experiment: microbe, parasite or virus in culture; type: cell-based, HIV-1; conditions: Human immunodeficiency virus 1, NL43, CEM-SS
Outline: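 CEM-SS cells (5 x 10^3/well) infected with HIV-1 at an MOI giving complete killing by day 6 (e.g., 0.01-0.05), with serial half-log compound dilutions in triplicate. After 6 days at 37°C, viability read by XTT reduction at 450 nm. CIC50 derived from protection against cytopathic killing.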

[18] = tested on: HIV-1 variant Y188H; experiment: Cytopathic cell killing assay, cross-resistance profile, infected MT-4 cells; type: cell-based; conditions: Human immunodeficiency virus 1, MT4
Outline: as §1

[19] = tested on: HIV-1 variant M184l; experiment: as above; type: cell-based; conditions: Human immunodeficiency virus 1, MT4
Outline: as §1

[20] = Human immunodeficiency virus 1, MT4, Table 10 (values in µM), isolate L1001
[21] = Human immunodeficiency virus 1, MT4, Table 10 (values in µM)
[22] = Human immunodeficiency virus 1, MT4, Table 10 (values in µM), isolate K101E
[23] = Human immunodeficiency virus 1, MT4, Table 10 (values in µM), isolate V108l
[24] = Human immunodeficiency virus 1, NL43, MT4, Table 10 (values in µM), isolate NL4-3 (WT)
[25] = Human immunodeficiency virus 1, MT4

Compound `CC1Cn2c(=O)[nH]c3cccc(c32)CN1` (stereo not drawn) [TIBO, 4,5,6,7-tetrahydro-5-methylimidazo[4,5,1-jk][1,4]benzodiazepin-2(1H)-one, reference compound] has an EC50 ([1]; Human immunodeficiency virus 1, MT4, Table 4, isolate L74V) of 0.2 µM, an EC50 ([1]; Human immunodeficiency virus 1, MT4, Table 9, isolate 1.74 V) of 0.2 µM and an EC50 ([2]; Human immunodeficiency virus 1, MT4, Table 4, isolate Y188C) of over 17.4 µM. The EC50 ([2]; Human immunodeficiency virus 1, MT4, Table 9, isolate Y188C) was over 20 µM, the EC50 ([2]; Human immunodeficiency virus 1, MT4, Table 10 (values in µM), isolate Y188C) was over 17.4 µM and the EC50 ([3]; Human immunodeficiency virus 1, MT4, Table 4, isolate V106A) was 12.5 µM. It also gave an EC50 ([3]; Human immunodeficiency virus 1, MT4, Table 9, isolate V106A) of over 10 µM, an EC50 ([4]; Human immunodeficiency virus 1, MT4, Table 4, isolate L1001) of 17.4 µM and an EC50 ([4]; Human immunodeficiency virus 1, MT4, Table 9, isolate L1001) of over 10 µM. It also gave an EC50 [4, 20] of 17.4 µM, an EC50 ([5]; Human immunodeficiency virus 1, MT4, Table 4) of 17.4 µM and an EC50 ([5]; Human immunodeficiency virus 1, MT4, Table 9) of over 10 µM. For the same compound, the EC50 [5, 21] was 17.4 µM, the EC50 ([6]; Human immunodeficiency virus 1, MT4, Table 4, isolate K101E) was 17.4 µM and the EC50 ([6]; Human immunodeficiency virus 1, MT4, Table 9, isolate KIOIE) was over 10 µM. The EC50 [6, 22] was 17.4 µM, the EC50 ([7]; Human immunodeficiency virus 1, MT4, Table 4, isolate 4xAZT) was 0.3 µM and the EC50 ([7]; Human immunodeficiency virus 1, MT4, Table 9, isolate 4XAZT) was 0.3 µM. The EC50 ([8]; Human immunodeficiency virus 1, MT4, Table 4, isolate A98G) was 11 µM, the EC50 ([8]; Human immunodeficiency virus 1, MT4, Table 9, isolate A98G) was 11 µM and the EC50 ([9]; Human immunodeficiency virus 1, MT4, Table 4, isolate 4xAZT/Y181C) was 2 µM. The EC50 ([9]; Human immunodeficiency virus 1, MT4, Table 9, isolate 4XAZT /Y181C) was 2 µM, the EC50 ([10]; Human immunodeficiency virus 1, MT4, Table 4, isolate V108I) was 2.4 µM and the EC50 ([10]; Human immunodeficiency virus 1, MT4, Table 9, isolate V1081) was 2.4 µM. The EC50 [10, 23] was 2.4 µM, the EC50 ([11]; Human immunodeficiency virus 1, MT4, Table 4, isolate Y181C) was 4.2 µM and the EC50 ([11]; Human immunodeficiency virus 1, MT4, Table 9, isolate Y181C) was 4.2 µM. It also gave an EC50 ([11]; Human immunodeficiency virus 1, MT4, Table 10 (values in µM), isolate Y181C) of 4.2 µM, an EC50 ([12]; Human immunodeficiency virus 1, MT4, Table 4, isolate V179D) of 6.2 µM and an EC50 ([12]; Human immunodeficiency virus 1, MT4, Table 9, isolate V179D) of 6.2 µM. The IC50 [13] was 0.06 µM, the EC50 ([14]; Human immunodeficiency virus 1, NL43, MT4, Table 4, isolate NL4-3 (WT)) was 0.3 µM and the EC50 ([14]; Human immunodeficiency virus 1, NL43, MT4, Table 9, isolate NL4.3) was 0.3 µM. The EC50 [14, 24] was 0.3 µM, the EC50 ([15]; Human immunodeficiency virus 1, MT4, Table 4, isolate 4xAZT/L.1001) was over 17.4 µM and the EC50 ([15]; Human immunodeficiency virus 1, MT4, Table 9, isolate 4XAZT /L1001) was over 20 µM.

Compound `CCc1cccc2c1nc(-c1c(F)cccc1F)n2Cc1c(F)cccc1F` [compound 47, 1-(2,6-difluorobenzyl)-2-(2,6-difluorophenyl)-4-ethylbenzimidazole] has an IC50 [16] of 17.5 µM, an inhibition at 1 µM ([16]; read-out: %inhibn (1µM)) of 50% and an EC50 [17] of 0.82 µM. The EC50 [1, 25] was 1.5 µM, the EC50 [2, 25] was 5.5 µM and the EC50 [3, 25] was over 20 µM. It also gave an EC50 ([4]; Human immunodeficiency virus 1, MT4, Table 8, isolate 1.1001) of 0.6 µM, an EC50 [4, 20] of 2.48 µM and an EC50 ([5]; Human immunodeficiency virus 1, MT4, Table 8) of over 20 µM. For the same compound, the EC50 [5, 21] was over 50 µM, the EC50 ([6]; Human immunodeficiency virus 1, MT4, Table 8, isolate K101E) was over 20 µM and the EC50 [6, 22] was over 50 µM. The EC50 [7, 25] was 1 µM, the EC50 [8, 25] was 8 µM and the EC50 [9, 25] was over 20 µM. The EC50 [18] was 13.2 µM, the EC50 [19] was 0.96 µM and the EC50 ([10]; Human immunodeficiency virus 1, MT4, Table 8, isolate V1081) was 3 µM. For the same compound, the EC50 [10, 23] was over 50 µM, the EC50 [11, 25] was 7.18 µM and the EC50 [12, 25] was 1.8 µM. For the same compound, the EC50 ([14]; Human immunodeficiency virus 1, NL43, MT4, Table 8, isolate N1.43) was 1.1 µM, the EC50 [14, 24] was 0.9 µM and the EC50 [15, 25] was 0.6 µM.
